Test results published in US8349851B2, “JAK kinase modulating compounds and methods of use thereof” (Ambit Biosciences Corp., priority 2009, dated 2013).
Like-named read-outs stand apart in the source and are kept apart here.

Experiments:
[1] = system: csTF-1 cells (GM-CSFR/JAK2/STAT5 pathway); assay: csTF-1 cell-based reporter assay; design: species or system human; conditions: GM-CSF at 2 ng/mL, 4 hours, read-out: Cell Assay: CS0017: CS TF-1 reporter assay: IC50
Procedure: csTF-1 Cell-based Reporter Assay
csTF-1 cells are derived from the human erythroleukemia cell line that is growth dependent on GM-CSF and has an intact GM-CSFR/JAK2/STAT5 pathway. The cell line contains stably integrated beta-lactamase reporter gene under the control of the […] (irf 1) response element recognized by the activated transcription factor STATS. csTF-1 cells (Invitrogen K1219) were washed with assay media (97% OPTIMEM/0.5% dialyzed FBS/0.1 mM NEAA/1 mM Na pyr/P/S) and seeded in the same media at 5×10^5 cell/mL in T150 flask. After 16 hour incubation, cells were seeded at 2×10^5 cell/well in 50 μl volume, into Costar, clear bottom, 96-well assay plates. Serial dilutions of compounds were added to the plates with final DMSO concentration at 0.5% and GM-CSF at 2 ng/mL and the plates were then incubated at […] and 5% CO2 for 4 hours. The plates were brought to room temperature before adding Substrate Mixture according to manufacturer's protocol (Invitrogen, Catalog #K1085). The assay plates containing the substrate mixture were incubated in the dark at room temperature for 2 hours. Blue and green fluorescence was measured with excitation at 409 nm and emission at 460 nm (for blue) and excitation at 409 nm and emission at 530 nm (for green) using Spectra Max Gemini EM.

JAK3 = target: T1, JAK3 (Homo sapiens, UniProt P52333); assay: Competition binding assay, JAK3; conditions: read-out: Binding Assay: JAK3 (active_KD, ENZ)
T1 construct: made in house
T1 sequence (P52333 822-1111 limits assumed): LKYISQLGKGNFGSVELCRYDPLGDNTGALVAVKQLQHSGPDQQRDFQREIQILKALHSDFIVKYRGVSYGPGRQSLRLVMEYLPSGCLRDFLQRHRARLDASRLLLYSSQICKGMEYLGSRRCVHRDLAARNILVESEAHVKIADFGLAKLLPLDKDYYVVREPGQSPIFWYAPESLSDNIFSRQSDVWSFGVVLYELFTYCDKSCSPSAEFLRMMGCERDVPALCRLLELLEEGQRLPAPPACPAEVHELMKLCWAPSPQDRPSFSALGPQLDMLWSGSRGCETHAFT
Description: (§1) Competition Binding Assay to Determine Binding Constants (Kd) of the Compounds Against JAK Kinases
(§2) Competition binding assays used herein were developed, validated and performed as described in Fabian et al., Nature Biotechnology 2005, 23,329-336. Kinases were produced as fusions to T7 phage (See, Fabian et al. or WO04/015142) or alternatively, the kinases were expressed in HEK-293 cells and subsequently tagged with DNA for PCR detection (See, WO08/005310). For the binding assays, streptavidin-coated magnetic beads were treated with biotinylated affinity ligands for 30 min at rt to generate affinity resins. The liganded beads were blocked with excess biotin and washed with blocking buffer (SeaBlock (Pierce), 1% BSA, 0.05% Tween 20, 1 mM DTT) to remove unbound ligand and to reduce non-specific binding. […] Test compounds were prepared as 100× stocks in DMSO and rapidly diluted into the aqueous environment. DMSO was added to control assays lacking a test compound. Primary screen interactions were performed in polypropylene 384-well plates in a final volume of 34 μL, while Kd determinations were performed in polystyrene 96-well plates in a final volume of 135 μL. […] The kinase concentration in the eluates was measured by quantitative PCR. Each kinase was tested individually against each compound. Kds were determined using eleven serial threefold dilutions. A selectivity score, which is a quantitative measure of selectivity of a compound against a panel of enzymes, may be calculated for a compound by dividing the number of enzymes for which a compound meets a set criteria, (for example, a binding constant of 100 nM or less), by the total number of enzymes tested.

JAK2 = target: T2, JAK2 (Homo sapiens, UniProt O60674); assay: Competition binding assay, JAK2; conditions: read-out: Binding Assay: JAK2 (active_KD)
T2 construct: made in house
T2 sequence (O60674 849-1124 limits assumed): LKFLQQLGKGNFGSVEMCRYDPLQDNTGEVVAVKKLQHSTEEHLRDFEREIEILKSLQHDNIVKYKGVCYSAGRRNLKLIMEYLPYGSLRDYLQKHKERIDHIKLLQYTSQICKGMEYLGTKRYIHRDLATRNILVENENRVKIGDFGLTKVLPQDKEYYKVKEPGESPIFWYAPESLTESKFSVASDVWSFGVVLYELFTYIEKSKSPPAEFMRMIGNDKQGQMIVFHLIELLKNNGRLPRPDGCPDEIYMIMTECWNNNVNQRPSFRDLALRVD
Description: as §1, §2

AuroraB = target: T3, AuroraB (Homo sapiens, UniProt Q96GD4); assay: Competition binding assay, Aurora B
T3 construct: made in house
T3 sequence (Q96GD4 whole entry): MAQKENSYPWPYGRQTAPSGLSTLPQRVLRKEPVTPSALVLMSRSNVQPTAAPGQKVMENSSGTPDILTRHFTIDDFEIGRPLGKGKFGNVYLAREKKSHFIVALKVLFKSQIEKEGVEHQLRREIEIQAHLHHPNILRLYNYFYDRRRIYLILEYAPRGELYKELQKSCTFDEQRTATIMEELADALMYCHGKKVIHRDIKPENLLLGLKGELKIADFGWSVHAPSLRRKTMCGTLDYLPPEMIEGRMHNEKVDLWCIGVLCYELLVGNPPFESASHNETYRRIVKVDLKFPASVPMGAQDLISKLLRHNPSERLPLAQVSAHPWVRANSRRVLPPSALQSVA
Description: Methods for determining binding constant against Aurora B kinase are known to one of skill in the art. Exemplary methods are described in U.S. provisional application No. 61/294,413, and Fabian et al., Nature Biotechnology 2005, 23,329-336.
as §2

| Compound | IC50 ([1]; Homo sapiens) [nM] | Kd (JAK3) [nM] | Kd (JAK2) [nM] | Kd (AuroraB) [nM] | IC50 [1] [nM] |
| --- | --- | --- | --- | --- | --- |
| Cc1cc(Nc2nc(C(=O)c3ccc(F)cc3)nc3cc(C(F)(F)F)ccc23)n[nH]1 [Example 17, (4-fluorophenyl)(4-(5-methyl-1H-pyrazol-3-ylamino)-7-(trifluoromethyl)quinazolin-2-yl)methanone] | 100 to 500 | > 100 | > 10 | > 200 | – |
| OC(c1ccc(F)cc1)c1nc(Nc2cc[nH]n2)c2ccc(I)cc2n1 (racemic) [Example 23, (R,S)-(4-(1H-pyrazol-3-ylamino)-7-iodoquinazolin-2-yl)(4-fluorophenyl)methanol] | 100 to 500 | > 100 | 1 to 10 | > 200 | – |
| COc1ccc2c(Nc3cc[nH]n3)nc(C(=O)c3ccc(F)cc3)nc2c1 [Example 28, (4-(1H-pyrazol-3-ylamino)-7-methoxyquinazolin-2-yl)(4-fluorophenyl)methanone] | 100 to 500 | > 100 | 1 to 10 | > 200 | – |
| Cc1cc(Nc2nc(C(=O)c3cccc(F)c3)nc3ccccc23)n[nH]1 [Example 1, (3-fluorophenyl)(4-(5-methyl-1H-pyrazol-3-ylamino)quinazolin-2-yl)methanone] | 100 to 500 | 10 to 100 | 1 to 10 | > 200 | – |
| Fc1ccc(C(F)c2nc(Nc3cc[nH]n3)c3ccccc3n2)cc1 (racemic) [Example 7, (R,S)-2-(fluoro(4-fluorophenyl)methyl)-N-(1H-pyrazol-3-yl)quinazolin-4-amine] | 100 to 500 | 10 to 100 | ≤ 1 | > 200 | – |
| COc1cccc2c(Nc3cc[nH]n3)nc(C(=O)c3ccc(F)cc3)nc12 [Example 35, (4-(1H-pyrazol-3-ylamino)-8-methoxyquinazolin-2-yl)(4-fluorophenyl)methanone] | > 500 | > 100 | > 10 | 50 to 200 | – |
| Cc1cc(Nc2nc(C(O)c3ccc(F)cc3)nc3c(C)cccc23)n[nH]1 (racemic) [Example 46, (R,S)-(4-fluorophenyl)(8-methyl-4-(5-methyl-1H-pyrazol-3-ylamino)quinazolin-2-yl)methanol] | 100 to 500 | 10 to 100 | ≤ 1 | > 200 | – |
| (4-(1H-pyrazol-3-ylamino)quinazolin-2-yl)bis(4-fluorophenyl)methanol [Example 48] | – | > 100 | > 10 | > 200 | > 500 |
| O=C(c1ccc(F)cc1)c1nc(Nc2cc[nH]n2)c2ccccc2n1 [Example 4, (4-(1H-pyrazol-3-ylamino)quinazolin-2-yl)(4-fluorophenyl)methanone] | ≤ 100 | 10 to 100 | ≤ 1 | > 200 | – |
| Cc1cc(Nc2nc(C(O)c3ccc(F)cc3)nc3cc(F)ccc23)n[nH]1 (racemic) [Example 47, (R,S)-(7-fluoro-4-(5-methyl-1H-pyrazol-3-ylamino)quinazolin-2-yl)(4-fluorophenyl)methanol] | 100 to 500 | 10 to 100 | ≤ 1 | > 200 | – |

More lines, now with the values ahead:

| IC50 ([1]; Homo sapiens) [nM] | Kd (JAK3) [nM] | Kd (JAK2) [nM] | Kd (AuroraB) [nM] | IC50 [1] [nM] | Compound |
| --- | --- | --- | --- | --- | --- |
| ≤ 100 | 10 to 100 | 1 to 10 | > 200 | – | Cc1cc(Nc2nc(C(=O)c3ccc(F)cc3)nc3cc(F)ccc23)n[nH]1 [Example 19, (7-fluoro-4-(5-methyl-1H-pyrazol-3-ylamino)quinazolin-2-yl)(4-fluorophenyl)methanone] |
| > 500 | ≤ 10 | ≤ 1 | > 200 | – | Cc1cc(Nc2nc(C(O)c3ccc(F)cc3)nc3cc(OCC(=O)O)ccc23)n[nH]1 (racemic) [Example 44, (R,S)-2-(2-((4-fluorophenyl)(hydroxy)methyl)-4-(5-methyl-1H-pyrazol-3-ylamino)quinazolin-7-yloxy)acetic acid] |
| ≤ 100 | 10 to 100 | ≤ 1 | > 200 | – | Cc1cc(Nc2nc(C(F)(F)c3ccc(F)cc3)nc3c(F)cccc23)n[nH]1 [Example 34, 2-(difluoro(4-fluorophenyl)methyl)-8-fluoro-N-(5-methyl-1H-pyrazol-3-yl)quinazolin-4-amine] |
| ≤ 100 | 10 to 100 | ≤ 1 | > 200 | – | Cc1ccc2c(Nc3cc(C)[nH]n3)nc(C(=O)c3ccc(F)cc3)nc2c1 [Example 24, (4-fluorophenyl)(7-methyl-4-(5-methyl-1H-pyrazol-3-ylamino)quinazolin-2-yl)methanone] |
| ≤ 100 | ≤ 10 | ≤ 1 | > 200 | – | Cc1ccc2c(Nc3cc(C)[nH]n3)nc(C(F)(F)c3ccc(F)cc3)nc2c1 [Example 26, 2-(difluoro(4-fluorophenyl)methyl)-7-methyl-N-(5-methyl-1H-pyrazol-3-yl)quinazolin-4-amine] |
| ≤ 100 | ≤ 10 | ≤ 1 | > 200 | – | Cc1cc(Nc2nc(C(O)c3ccc(F)cc3)nc3cc(OCCO)ccc23)n[nH]1 (racemic) [Example 39, (R,S)-2-(2-((4-fluorophenyl)(hydroxy)methyl)-4-(5-methyl-1H-pyrazol-3-ylamino)quinazolin-7-yloxy)ethanol] |
| ≤ 100 | 10 to 100 | ≤ 1 | > 200 | – | COc1ccc2c(Nc3cc(C)[nH]n3)nc(C(O)c3ccc(F)cc3)nc2c1 (racemic) [Example 31, (R,S)-(4-fluorophenyl)(7-methoxy-4-(5-methyl-1H-pyrazol-3-ylamino)quinazolin-2-yl)methanol] |
| ≤ 100 | 10 to 100 | ≤ 1 | > 200 | – | OC(c1ccc(F)cc1)c1nc(Nc2cc[nH]n2)c2ccccc2n1 (racemic) [Example 6, (R,S)-(4-(1H-pyrazol-3-ylamino)quinazolin-2-yl)(4-fluorophenyl)methanol] |
| ≤ 100 | 10 to 100 | ≤ 1 | > 200 | – | Fc1ccc(C(F)(F)c2nc(Nc3cc[nH]n3)c3ccccc3n2)cc1 [Example 9, 2-(difluoro(4-fluorophenyl)methyl)-N-(1H-pyrazol-3-yl)quinazolin-4-amine] |
| ≤ 100 | ≤ 10 | ≤ 1 | > 200 | – | Cc1cc(Nc2nc(C(F)(F)c3ccc(F)cc3)nc3ccccc23)n[nH]1 [Example 8, 2-(difluoro(4-fluorophenyl)methyl)-N-(5-methyl-1H-pyrazol-3-yl)quinazolin-4-amine] |
| ≤ 100 | ≤ 10 | ≤ 1 | 50 to 200 | – | CCOCc1ccc2c(Nc3cc(C)[nH]n3)nc(C(F)(F)c3ccc(F)cc3)nc2c1 [Example 51, 2-(Difluoro(4-fluorophenyl)methyl)-7-(ethoxymethyl)-N-(5-methyl-1H-pyrazol-3-yl)quinazolin-4-amine] |
| ≤ 100 | ≤ 10 | ≤ 1 | > 200 | – | Cc1cc(Nc2nc(C(F)(F)c3ccc(F)cc3)nc3cc(CS(C)(=O)=O)ccc23)n[nH]1 [Example 50, 2-(difluoro(4-fluorophenyl)methyl)-N-(5-methyl-1H-pyrazol-3-yl)-7-(methylsulfonylmethyl)quinazolin-4-amine] |
| 100 to 500 | ≤ 10 | ≤ 1 | > 200 | – | Cc1cc(Nc2nc(C(O)c3ccc(F)cc3)nc3cc(OC4CCNCC4)ccc23)n[nH]1 (centres unmarked) [Example 41, (4-fluorophenyl)(4-(5-methyl-1H-pyrazol-3-ylamino)-7-(piperidin-4-yloxy)quinazolin-2-yl)methanol] |
